Laboratory results as given in patent publication EP0528458A1, “Method for controlling dental tartar using phosphopeptides and compositions for use therein” (UNILEVER N.V., priority 1991, dated 1993).
Read-outs that look alike come from different tables or passages of the source.

Experiments:
[1] = no Na CPP
Procedure: Comparative in vitro experiments were carried out using a Seeded Crystal Growth Inhibition Assay. This assay involved the treatment of synthetic hydroxyapatite with the anti-tartar agent to be tested. The hydroxyapatite, treated with the anti-tartar agent was incubated at 37°C in a calcifying solution made up of calcium and phosphate at 1.5 mM and 4.5 mM respectively, pH 7.4. The samples were filtered to remove any calcium phosphate crystals and the free calcium in the filtrate was measured using Atomic Absorption Spectroscopy. The percent inhibition was calculated as follows: [formula]
The % inhibition is a measure of the degree of inhibition of calcium phosphate precipitation by the anti-tartar agent. The anti-tartar agents tested were: 1) tetrasodium pyrophosphate, Na₄P₂O₇ and 2) combinations of Na₄P₂O₇ and sodium caseinphosphopeptide, Na CPP, prepared as described above, which is a mixture rich in phosphopeptides of SEQ ID NO:1 and SEQ ID NO:2.
Experiments were carried out using a Seeded Crystal Growth Inhibition Assay described in Example 1. % inhibition was measured for NaCPP/Zinc sulphate mixtures.

[2] = system: Streptococcus sobrinus 6715-14; details: 1.5% pyrophosphate anion; versus deionized water control
Procedure: A Microbial Mineralization Assay was carried out. Standard glass rods (3mm x 50mm) were attached to a circular piece of rubber and attached to a vial cap. The surface of the rods was etched. The rods were placed in a growth medium containing sucrose and Streptococcus sobrinus 6715-14. The microbe was grown on the rods for 24 hours at 37°C. The rods were then placed into a fresh growth medium for another 24 hours at 37°C. The rods were then taken out and treated with the anti-tartar agent to be tested. Treatment with only deionized water was used as control. The rods were then placed in a calcifying solution made up of a calcium and phosphate at levels of 1.5 mM and 5.0 mM respectively, at pH 7.4, supplemented with human saliva (about 25%). Six hours later, the treatment with the anti-tartar agent was repeated, and glass rods were placed in a calcifying solution. The procedure was continued for the next three days.
The rods were then removed from the calcifying solution, rinsed with water and placed in 0.6 N HCl solution. The solution containing the rods was heated at 60°C for 2 hours to dissolve calcified salts. The resulting acidic solution was filtered over 0.8 µm nylon membrane. The level of mineral formation was assessed via calcium and phosphorus analysis. The results were calculated by comparing the % reduction of mineral formation to that of the control.

Row | Structure (SMILES) | % Inhibition ([1]; Na4 P2 O7 0.1 mM) [%] | % Inhibition ([1]; Na4 P2 O7 0.15 mM) [%] | % Inhibition ([1]; Na4 P2 O7 0.2 mM) [%] | % reduction of mineral formation [2] [%]
1 | O=P([O-])([O-])OP(=O)([O-])[O-].[Na+].[Na+].[Na+].[Na+] [Na4 P2 O7, tetrasodium pyrophosphate] | 14 | 24 | 54 | –
2 | O=P(O)(O)OP(=O)(O)O [pyrophosphate anion] | – | – | – | 32
